The source of these data is patent publication US11331328B2, “Compositions and methods for inhibiting antiapoptotic Bcl-2 proteins as anti-aging agents” (priority 2014, dated 2022).

Data set [1] has as its system senescent cells in TBI p16-3MR mice. Kind of data set: Senescent cell clearance in TBI p16-3MR mice (luminescence, p16 mRNA). Format: in vivo, mouse. To be noted: 6 Gy TBI; 2 treatment cycles.
Procedure: ABT was given by gavage at 50 mg/kg/d for 7 d per cycle for 2 cycles with a 2-wk interval. GCV was given to the mice by ip injection at 25 mg/kg/d for 5 d per cycle for 2 cycles with a 2-wk interval. […] The mice were euthanized the day after the imaging by CO2 inhalation and followed by cervical dislocation. Tissues were harvested for immediate tissue luminescence imaging as described below or RNA extraction for analyses of p16, IL-1α, CCL-5, and CXCL-10 mRNA levels by qRT-PCR.
For in vivo luminescence, mice were injected i.p. with 250 μl of Xenolight RediJect Coelenterazine h (100 μg/mL, Calipers-PerkinElmer, Waltham, Mass., USA). The mice were anesthetized with 4% isoflurane gas at 1 L/minute oxygen flow 5 min after the injection. Luminescence images were acquired using a Xenogen IVIS-200 Optical In Vivo imaging System equipped with a Living Image Version 4.3.1 (Caliper Life Sciences, Hopkinton Mass., USA). Mice were oriented in a supine position in the scanner. […]
For tissue luminescence imaging, after harvested from euthanized mice, tissues were immediately soaked in pre-warmed (37° C.) PBS with 2% FBS and 1:10 dilution of Xenolight RediJect Coelenterazine h for 10 min. They were transferred into a new 35-mm dish and luminescence images were taken 12-15 min after soaking in the substrate solution using a Xenogen IVIS-200 Optical In Vivo imaging System. […]
In data set [2] the test system is wild-type or p16-3MR mice. As to conditions: at the doses used; cited from earlier work.
The subject of data set [3] is IL-1α, TNFα, CCL-5, CXCL-10 mRNA. Kind of data set: SASP mRNA levels in lungs of TBI p16-3MR mice (qRT-PCR). The format is in vivo, mouse. As to conditions: 6 Gy TBI; 2 treatment cycles. The method, then: To measure p21 and GAPDH mRNA levels in WI-38 cells and IL-1α, TNFα, CCL-5, and CXCL-10 mRNA levels in mouse tissues, SYBR assay kit was used (Applied biosystems in life technologies). Briefly, 1 μl cDNA was mixed with 7.5 μl SYBR Green PCR Master Mix and 0.2 μl of primers (Table 5). Samples were then added with 6.30 μl of H2O to give a total 15 μl of mixture. qPCR conditions were as follows: 95° C. for 10 min, 40×(95° C. for 15 s and 60° C. for 1 min), 95° C. for […], 95° C. for 15 min. All reactions were run in triplicate on an ABI StepOnePlus Real-Time PCR System.
For orientation: Real-time PCR tracks product formation cycle by cycle.

Consider `Nc1nc(O)c2ncn(COC(CO)CO)c2n1` [GCV, ganciclovir], for which, in data set [1], the “SCs in lungs (luminescence, p16 mRNA)” value was “reduced IR-induced SCs”. Besides, the toxicity to mice entry in data set [2] is on record as “non-toxic to wild-type or p16-3MR mice”. The SASP in lungs entry in data set [3] was “suppressed the SASP induced by TBI”.
